Experimental data from patent US20250228954A1, “Designing Antisense Oligonucleotide Delivery Peptides by Interpretable Machine Learning” (Sarepta Therapeutics, Inc., priority 2020, published 2025).

How the values were obtained:
HeLa 654 cells = assay: HeLa-654 eGFP assay (corrective splicing / exon skipping by PMO IVS2-654); format: cell-based, human
Description: With the 36 constructs synthesized, the ability to modulate PMO activity using the modified HeLa cell assay was tested. The HeLa-654 cells were stably transfected to express a nonfluorescent eGFP protein. The eGFP gene is interrupted by a mutant intron from the human β-globin gene (IVS2-654). The insertion alters pre-mRNA splicing to cause retention of a fragment in the mature mRNA that results in a nonfluorescent protein. PMO IVS2-654 base-pairs with the B-globin insertion, modifies mRNA splicing, and thereby leads to expression of fluorescent eGFP.
For treatment, the crude reaction mixture was diluted to 5 μM in media. The concentration of the modular construct was calculated based on the original concentration of the module 1-2 conjugate mixed in the reaction. Using media containing 10% fetal bovine serum (FBS), the cells were treated with each construct for 22 hours, after which the cellular fluorescence was measured by flow cytometry.
From the lists of hundreds of predicted peptide sequences, twenty candidates were selected that varied in length, charge, and predicted activity to synthesize and test. Just as with the PMO-peptide library, the PMO-Mach constructs were first tested for PMO delivery in the HeLa 654 assay at 5 μM in complete media for 22 hours and analyzed by flow cytometry (FIG. 14). Experiments were conducted using three technical triplicates and two or three biological replicates.
HeLa 654 cells were maintained in MEM supplemented with 10% (v/v) fetal bovine serum (FBS) and 1% (v/v) penicillin-streptomycin at 37° C. and 5% CO2. Eighteen hours prior to treatment, the cells were plated at a density of 5,000 cells per well in a 96-well plate in MEM supplemented with 10% FBS and 1% penicillin-streptomycin. The day of the experiment, the 384 well plate containing the crude reaction mixtures in DMSO was diluted to 100 μM by the addition of 16.8 μL of PBS to the 3.2 μL reaction mixture. Then, each construct was diluted to 5 μM in MEM supplemented with 10% FBS and 1% penicillin-streptomycin. Cells were incubated with each conjugate at a concentration of 5 μM for 22 hours at 37° C. and 5% CO2. Next, the treatment media was aspirated the cells were incubated with Trypsin-EDTA 0.25% for 15 min at 37° C. and 5% CO2, washed 1× with PBS, and resuspended in PBS with 2% FBS and 2 μg/mL propidium iodide. Flow cytometry analysis was carried out on a BD LSRII flow cytometer. Gates were applied to the data to ensure that cells that were highly positive for propidium iodide or had forward/side scatter readings that were sufficiently different from the main cell population were excluded. Each sample was capped at 5,000 gated events.
Analysis was conducted using Graphpad Prism 7. For each sample, the mean fluorescence intensity and the number of gated cells was measured (FIGS. 8 and 9) and the intensity multiplied by the cell number was calculated (FIG. 7).

[1] = Chromogenic LAL endotoxin assay; conditions: lot used for animal studies, acetate salt, 0.5 mg in 1 mL PBS
Description: The amount of endotoxin in PMO-P7 was measured. A chromogenic LAL (Limulus Amebocyte Lysate) assay for the detection and quantification of bacterial endotoxins was used. LAL is an extract of blood cells (amoebocytes) from the Atlantic horseshoe crab. This assay is based on the reaction of LAL with bacterial endotoxin lipopolysaccharide (LPS), which is a membrane component of gram-negative bacteria. In this method the LAL reagent is mixed with a chromogenic reagent (a peptide connected to p-nitroaniline, a yellow colorant) to produce a synthetic chromogenic substrate. The sample was added to this chromogenic substrate prior incubation. The presence of endotoxins in the sample produces a series of enzymatic reactions in the LAL reagent resulting in the breaking of the peptide bonds releasing p-nitroaniline molecules and therefore producing a yellow color. The concentration of endotoxin is quantitated by measuring the absorbance at 405-410 nm. Using the lot of PMO-P7 for animal studies, PMO-P7 solution was prepared using 0.5 mg of PMO-P^7 as acetate salt dissolved in 1 mL of PBS (1X). […] The reader mixed the sample with the LAL (Limulus Amebocyte Lysate) reagent. […] After mixing, the optical density of the wells was measured and analyzed against an internal archived standard curve. The reading was 0.0471 EU/mg (EU: endotoxin units). […]

EGFP-654 mice = assay: EGFP protein level in tissues of EGFP-654 mice after single i.v. injection; format: in vivo, mouse; set-up: unit not given here; conditions: 7 days
Source text: The mice used in the study contain a similar transgene as the HeLa654 cells from Example 4. This mouse model ubiquitously expresses EGFP-654 transgene throughout the body under chicken β-actin promoter. A mutated nucleotide 654 at intron 2 of human β-globin gene is contained in the EGFP-654 sequence which interrupts EGFP-654 coding sequence and prevents proper translation of EGFP protein. […] In this study, 6- to 8-week-old male EGFP-654 mice bred at Charles River Laboratory were used. These mice were group housed with ad libitum access to food and water.
[…] Seven days after the injection, the mice were euthanized for serum and tissue sample collection. Quadriceps, diaphragm, heart were rapidly dissected, snap-frozen in liquid nitrogen and stored at −80° C. until analysis.
20-25 mg of mouse tissue was homogenized in RIPA buffer (Thermo Fisher, Cat #89900) with protease inhibitor cocktail (Roche, 04693124001) using a Fast Prep 24-5G instrument (MP Biomedical). Homogenates were centrifuged at 12,000 g for 10 min at 4° C. The resultant supernatant lysates were quantified by Pierce BCA Protein Assay Kit (Thermo Fisher, Cat #23225) and saved for EGFP expression measurement. Specifically, 80 μg of lysates were aliquoted in each well in a black-wall clear-bottom 96-well microplate (Corning). EGFP fluorescent intensity of each sample was measured in duplicates using a SpectraMAx i3x microplate reader (Molecular devices) by default setting. The average EGFP fluorescent intensity of each sample was then plotted against a standard curve constructed by recombinant EGFP protein (Origen, Cat #TP790050) to quantify EGFP protein level per μg protein lysate (See FIGS. 24D-F).

[2] = Serum kidney injury markers in EGFP-654 mice; format: in vivo, mouse; conditions: after seven days
Description: After 3-days of acclimation, mice were randomized into groups to receive a single i.v. tail vein injection of either saline or PMO-P7 at the indicated doses; 5, 10 and 30 mg/kg. Seven days after the injection, the mice were euthanized for serum and tissue sample collection. Quadriceps, diaphragm, heart were rapidly dissected, snap-frozen in liquid nitrogen and stored at −80° C. until analysis.
Serum from all groups were collected 7-days post-injection and tested for kidney injury markers using a Vet Axcel Clinical Chemistry System (Alfa Wassermann Diagnostic Technologies, LLC). Specifically, serum BUN, creatinine, and cystatin C levels were measured using ACE® Creatinine Reagent (Alfa Wassermann, Cat #SA1012), ACER Blood Urea Nitrogen Reagent (Alfa Wassermann, Cat #SA2024) and Diazyme Cystatin C immunoassay (Diazyme Laboratories, Cat #DX133C—K), […], per manufacturer's recommendation (See, FIGS. 24A-C).

SMILES: Cc1cn([C@H]2CN(P(=O)(OC[C@@H]3CN(P(=O)(OC[C@@H]4CN(P(=O)(OC[C@@H]5CN(P(=O)(OC[C@@H]6CN(P(=O)(OC[C@@H]7CN(P(=O)(OC[C@@H]8CN(P(=O)(OC[C@@H]9CN(P(=O)(OC[C@@H]%10CN(C(=O)CCCCC(=O)N%11Cc%12ccccc%12-c%12nnn(CCCCC(=O)N[C@@H](CCCCN)C(=O)N[C@@H](CCCCN)C(=O)N[C@@H](CCCCN)C(=O)N[C@@H](CCCCN)C(=O)N[C@@H](CCCCN)C(=O)N[C@@H](CCC(N)=O)C(=O)NCCC(=O)N[C@@H](CCCCN)C(=O)N[C@@H](CCCCN)C(=O)N[C@@H](CCCCN)C(=O)N[C@@H](Cc%13c[nH]cn%13)C(=O)N[C@@H](CCCNC(=N)N)C(=O)N[C@@H](Cc%13c[nH]c%14ccccc%13%14)C(=O)N%13CCC[C@H]%13C(=O)N[C@@H](CCCCN)C(=O)NCCCCCC(=O)NCCCCCC(=O)N[C@@H](CS)C(N)=O)c%12-c%12ccccc%12%11)C[C@H](n%11cnc%12c(=O)[nH]c(N)nc%12%11)O%10)N(C)C)C[C@H](n%10cnc%11c(N)ncnc%11%10)O9)N(C)C)C[C@H](n9ccc(N)nc9=O)O8)N(C)C)C[C@H](n8ccc(N)nc8=O)O7)N(C)C)C[C@H](n7ccc(N)nc7=O)O6)N(C)C)C[C@H](n6cnc7c(N)ncnc76)O5)N(C)C)C[C@H](n5cnc6c(N)ncnc65)O4)N(C)C)C[C@H](n4cc(C)c(=O)[nH]c4=O)O3)N(C)C)C[C@@H](COP(=O)(N(C)C)N3C[C@@H](COP(=O)(N(C)C)N4C[C@@H](COP(=O)(N(C)C)N5C[C@@H](COP(=O)(N(C)C)N6C[C@@H](COP(=O)(N(C)C)N7C[C@@H](COP(=O)(N(C)C)N8C[C@@H](COP(=O)(N(C)C)N9C[C@@H](COP(=O)(N(C)C)N%10C[C@@H](COP(=O)(N(C)C)N%11C[C@@H](COP(=O)(N(C)C)N%12CCN(C(=O)OCCOCCOCCO)CC%12)O[C@@H](n%12cnc%13c(=O)[nH]c(N)nc%13%12)C%11)O[C@@H](n%11ccc(N)nc%11=O)C%10)O[C@@H](n%10cc(C)c(=O)[nH]c%10=O)C9)O[C@@H](n9cnc%10c(N)ncnc%109)C8)O[C@@H](n8cc(C)c(=O)[nH]c8=O)C7)O[C@@H](n7cc(C)c(=O)[nH]c7=O)C6)O[C@@H](n6cnc7c(N)ncnc76)C5)O[C@@H](n5ccc(N)nc5=O)C4)O[C@@H](n4ccc(N)nc4=O)C3)O2)c(=O)[nH]c1=O (some centres unmarked) [P7]
- fold increase in activity with respect to unconjugated PMO (eGFP assay) (HeLa 654 cells; 5 μM): 14 fold
- PMO delivery / activity, result in words (HeLa 654 cells; 5 μM, 22 h): superior activity
- fold increase at maximal effective concentration with respect to unconjugated PMO (HeLa 654 cells; dose-response between 0.1 and 100 μM): 45 fold
- FOLD OVER PMO (HeLa 654 cells; eGFP fluorescence of PMO-peptide conjugate relative to unconjugated PMO, 5 μM, 22 h): 17.7
- endotoxin [1]: 0.0471 EU/mg
- GFP protein in the Diaphragm (EGFP-654 mice; 30 mg/kg): 1100
- GFP protein in the Heart (EGFP-654 mice; 30 mg/kg): 2000
- GFP protein in the Quadriceps (EGFP-654 mice; 30 mg/kg): 1300
- GFP protein in the Diaphragm (EGFP-654 mice; 60 mg/kg): 2500
- GFP protein in the Heart (EGFP-654 mice; 60 mg/kg): 2200
- GFP protein in the Quadriceps (EGFP-654 mice; 60 mg/kg): 4000
- BUN (blood urea nitrogen) levels [2]: no significant changes
- creatinine levels [2]: no significant changes
- cystatin C levels [2]: no significant changes
